Assay results as given in patent US12539289B2, “Phorbol ester compositions and methods of use for treating or reducing the duration of cytopenia” (BIOSUCCESS BIOTECH CO., LTD., priority 2014, dated 2026).
Where “and” joins values, the source holds several entries; their conditions need not be identical. Equal values may be shown once.

Experiments:
[1] = test system: bone marrow stromal cells (BMSCs) from healthy persons; assay: BMSC proliferation or inhibition, CCK8 method, healthy persons; type: cell-based, human; conditions: BMSCs of the healthy human and the AML patient after chemotherapy
Protocol: To explore the effect of TPA alone or combined rhG-CSF on bone marrow hematopoietic cells proliferation and colony formation ability which from patients of acute myeloid leukemia (AML) in the period of bone marrow suppression in vitro and to observe the effect of TPA on bone marrow stromal cells(BMSCs) proliferation or inhibition from patients of AML in the period of myelosuppression and the healthy persons.
• 1) Human bone marrow cells from the same AML patient after chemotherapy were cultured by methyl cellulose semi-solid culture medium. Groups: Blank, TPA (10 ng/ml), G-CSF (50 ng/ml), TPA (10 ng/ml)+GCSF (50 ng/ml). The experiments were repeated for 4 times. • 2) The stroma cells of bone marrow from the healthy human and the AML patient after chemotherapy were cultured by methyl cellulose semi-solid culture medium. Different TPA concentrations were added. Groups: Blank, TPA (0.1 ng/ml), TPA (1.0 ng/ml), TPA (5 ng/ml), TPA (10 ng/ml), TPA (20 ng/ml), TPA (30 ng/ml). • 3) Cultivation of BMSCs from healthy persons and patients of AML in the bone marrow suppression phase in vitro, added to TPA of different concentrations, 0.1 ng/ml, 1.0 ng/ml, 5 ng/ml, 10 ng/ml, 20 ng/ml, 30 ng/ml, and set up a control to detect cell proliferation or inhibition with CCK8 method. Results and Conclusion: • 1. […]

[2] = test system: post-chemotherapy neutropenia; conditions: cited from earlier work

CCCCCCCCCCCCCC(=O)O[C@@H]1[C@@H](C)[C@@]2(O)[C@@H](C=C(CO)C[C@]3(O)C(=O)C(C)=C[C@@H]23)[C@@H]2C(C)(C)[C@]12OC(C)=O [TPA, 12-O-tetradecanoylphorbol-13-acetate]
optimal concentrations for growth of stroma cells of bone marrow (BMSCs) [1]: 5 ng/mL and 10 ng/mL | duration of post-chemotherapy neutropenia ([2]; acute myelocytic leukemia (AML) patients): capable of shortening the duration of post-chemotherapy neutropenia | tolerability ([2]; recommended Phase 2 dose 0.125 mg/m^2 daily up to 5 days a week×2 weeks): well tolerated with only minor adverse events
